Source: patent EP1161410B1, “RETINOID ANTAGONISTS AND USE THEREOF” (Basilea Pharmaceutica AG, priority 1999, dated 2000)

What was measured:
[1] = Effect on weight loss induced by all-trans retinoic acid in mice; settings: female mice
Description: Effect of retinoids with RXR antagonistic activity on weight loss induced by all-trans retinoic acid in mice.
The test compounds were solubilized/suspended in arachis oil and applied intraperitoneally into female mice (25/30 g) for 5 days a week during 2 weeks.

neonatal mouse calvaria = test: Bone resorption assay, calcium release from neonatal mouse calvaria in tissue culture; assay type: cell-based, Swiss albino mice
Procedure: A series of agents are known to induce or stimulate bone resorption. In this assay retinoid antagonists were tested for their capacity to inhibit or counteract the bone resorptive activity of bone resorption inducers.
Bone resorption was determined by quantification of calcium release from neonatal mouse calvaria (skull bones) in a tissue culture system, into supernatant medium. Calvaria were prepared from 4 days old mice (body weight 4-4.5 g) of time controlled mated Swiss albino mice. Frontal and parietal calvarial parts were dissected under a stereo-microscope and halved along the median suture. Half calvaria from all animals were randomly distributed to 6-well culture dishes (NUNC), containing stainless steel grids to support the bones at the interface of gas and medium. The tissue is incubated in BGJ medium (Bioconcept, Switzerland) according to a specified formulation supplemented with 1 mg/ml BSA (bovine serum albumin, SIGMA). Calvaria were cultured at 37°C in humidified atmosphere of 5% CO2 and 95% air. After 24 hours of preincubation, they were transferred to new dishes containing 1.7 ml fresh medium and test substances. Bone resorption inducers and retinoid antagonists were tested either as single agents or in combination. The cultures were then run for 72 hours. Calcium concentrations in culture supernatants were measured immediately after each incubation period. Stable, free calcium was determined in 25 µl samples with a spectrophotometric method using a methylthymol blue containing kit (Biomérieux), (E.M. Gindler and J.D. King, Am. J. Clin. Pathol. 1972, 58, 376-382). The resorptive response was expressed as µg calcium released per half calvarium during 3 days treatment.
Additional tests were done to examine calcium remaining in the calvaria. Calcium was extracted with 5% trichloroacetic acid (TCA) and determined in 50 µl samples after neutralization with NaOH. Furthermore, bone tissue viability was determined to exclude cytotoxicity. This was quantified by the colorimetric MTT tetrazolium test (T. Mosmann, J. Immunol. Methods 1983, 65, 55-63).
Bone resorption induced by the various agents was determined by measuring the amount of calcium released from half calvaria into the supernatant medium. Calcium release is indicated in µg per half calvarium in 1.7 ml medium. Calcium release from calvaria into medium as well as uptake of calcium from medium into calvaria can be measured. Efficacy of retinoid antagonists to inhibit the activity of bone resorption inducers is expressed as % inhibition. It is calculated from the difference between the amount of released calcium by bone resorption inducers alone and the amount of released calcium by their combination with retinoid antagonists. Retinoid antagonists alone induce neither calcium release nor uptake. Basal resorption rate in vehicle controls was 5 or less than 5%.

IL-12 [2] = test: IL-12 production by THP-1 cells stimulated with IFNγ and SAC; assay type: cell-based, human; settings: retinoid antagonist (1 µg) added at time 0 together with IFNγ, IFNγ+SAC alone 275
Procedure: (§1) THP-1 cells were obtained from American Tissue Culture Collection and cultured in complete medium. To assay for IL-12 production, THP-1 cells, 1.25 x 10^6 cells/ml, were stimulated with S. aureus Cowan strain (SAC) (1/1000) and human recombinant interferon-γ (huIFN-γ (1000 U/ml) [Ma et al., J. Exp. Med. 183, 147-157 (1996)]. Alternatively, 0.5 x 10^6 human peripheral blood mononuclear cells (PBMC) (1 ml culture in 48 well plates) were primed with huIFN-γ (1000 U/ml) for 16 hours at 37°C, and then stimulated with SAC (1/1000). Supernatants were collected after 48 hours and freezed at -20 °C until assayed [Panina-Bordignon et al., J. Clin. Invest. 100, 1513-1519 (1997)].
(§2) IL-12 production was measured by specific enzyme linked immuno sorbant assay (ELISA), using 20C2 antibody (rat anti human IL-12 heterodimer p40-p35), at 2.5 µg/ml in coating buffer, and peroxidase-conjugated 4D6 antibody (rat anti human IL-12) at 250 ng/ml in assay buffer as described [Zhang et al., J. Clin. Invest. 93, 1733-1739 (1994)]. Standard (recombinant human IL-12, 800 pg/ml to 6 pg/ml) and samples (100 µl) diluted in assay buffer were added to duplicate wells. Absorbance was read at 450-650 nm. The unknown IL-12 concentrations of the samples were read from the corresponding standard curve and multiplied by the corresponding dilution factor. Maximal IL-12 production varied between 200 and 400 pg/ml.
(§3) Lyophilized retinoid antagonists were diluted in DMSO under yellow light, on ice at a concentration of 2 mM. Serial dilutions (1 µM-1 pM) were prepared in complete RPMI medium. 10 µl of each dilution was added to 1 ml culture.

IL-12 [3] = test: IL-12 production by activated monocytes (SAC + IFN-γ), ELISA; assay type: cell-based, human; settings: SAC+IFN-γ alone 120-126 pg/ml
Procedure: THP-1 cells were obtained from American Tissue Culture Collection and cultured in complete medium. […] Exp. Med. 183, 147-157 (1996)]. […] Supernatants were collected after 48 hours and freezed at -20 °C until assayed [[…]-Bordignon et al., J. Clin. Invest. 100, 1513-1519 (1997)]. […] Clin. Invest. 93, 1733-1739 (1994)]. […] Absorbance was read at 450-650 nm. The unknown IL-12 concentrations of the samples were read from the corresponding standard curve and multiplied by the corresponding dilution factor. […] Serial dilutions (1 μM-1 pM) were prepared in complete RPMI medium. 10 μl of each dilution was added to 1 ml culture.

IL-10 = IL-10 production by activated monocytes (SAC + IFN-γ); assay type: cell-based, human; settings: SAC+IFN-γ alone 1040 pg/ml
TNF-α = TNF-α production by activated monocytes (SAC + IFN-γ); assay type: cell-based, human; settings: SAC+IFN-γ alone 1840-2000 pg/ml
IL-12 [4] = test: IL-12 production by PBMC primed with IFNγ and stimulated with SAC; assay type: cell-based, human; settings: IFNγ+SAC alone 360
Procedure: as §1, §2, §3

[5] = A 200 mg/kg alone, intraperitoneally, n=2
[6] = C 100 mg/kg + A 200 mg/kg, intraperitoneally, n=2
[7] = C 200 mg/kg + A 200 mg/kg, intraperitoneally, n=2

In the case of `CCOc1c(\C(C)=C/C=C/C(C)=C/C(=O)O)cc(C(C)(C)C)cc1C(C)(C)C` [Compound A, (2E,4E,6Z)-7-(3,5-di-tert.butyl-2-ethaxyphenyl]-3-methyl-2,4,6-octatrienoic acid], the “% survival after 14 days” value [1, 5] is reported as 100%, the “% weight change after 4 days” value [1, 5] is reported as “+15%” and the “% weight change after 7 days” value [1, 5] is reported as “+26%”. The “% survival after 14 days” value [1, 6] was 100%, the “% weight change after 4 days” value [1, 6] was -13% and the “% weight change after 7 days” value [1, 6] was -8%. The “% survival after 14 days” value [1, 7] was 100%, the “% weight change after 4 days” value [1, 7] was -23% and the “% weight change after 7 days” value [1, 7] was -23%.

For `CC1=C(/C=C/C(C)=C/C=C/C(C)=C/C(=O)O)C(C)(C)CCC1` [Compound C, all-trans retinoic acid], the “% survival after 14 days” value ([1]; C 100 mg/kg alone, intraperitoneally, n=10) was 20%, the “% survival after 14 days” value ([1]; C 200 mg/kg alone, intraperitoneally 5 days a week during 2 weeks, n=2) was 0% and the “Calcium release per half calvarium” value (neonatal mouse calvaria; all-trans RA 0.01 μM alone, series of antagonist B) was 1 ± 2 µg. For the same compound, the “Calcium release per half calvarium” value (neonatal mouse calvaria; all-trans RA 0.01 μM alone, series of antagonist H) was 1 ± 4 µg, the “Calcium release per half calvarium” value (neonatal mouse calvaria; all-trans RA 0.1 μM alone, series of antagonist B) was 13 ± 3 µg and the “Calcium release per half calvarium” value (neonatal mouse calvaria; all-trans RA 0.1 μM alone, series of antagonist H) was 19 ± 11 µg. The “Calcium release per half calvarium” value (neonatal mouse calvaria; all-trans RA 1 μM alone, series of antagonist B) was 17 ± 3 µg and the “Calcium release per half calvarium” value (neonatal mouse calvaria; all-trans RA 1 μM alone, series of antagonist H) was 23 ± 8 µg.

In the case of `CC1=C(/C=C/C(C)=C\C=C\C(C)=C\C(=O)O)C(C)(C)CCC1` [Compound E, 9-cis retinoic acid], the “Calcium release per half calvarium” value (neonatal mouse calvaria; 9-cis RA 0.01 μM alone, series of antagonist B) is reported as 3 ± 3 µg, the “Calcium release per half calvarium” value (neonatal mouse calvaria; 9-cis RA 0.01 μM alone, series of antagonist H) is reported as 6 ± 10 µg and the “Calcium release per half calvarium” value (neonatal mouse calvaria; 9-cis RA 0.1 μM alone, series of antagonist B) is reported as 17 ± 10 µg. For the same compound, the “Calcium release per half calvarium” value (neonatal mouse calvaria; 9-cis RA 0.1 μM alone, series of antagonist H) was 22 ± 8 µg, the “Calcium release per half calvarium” value (neonatal mouse calvaria; 9-cis RA 1 μM alone, series of antagonist B) was 18 ± 4 µg and the “Calcium release per half calvarium” value (neonatal mouse calvaria; 9-cis RA 1 μM alone, series of antagonist H) was 40 ± 11 µg.

With `CC1(C)CCC(C)(C)c2cc3c(cc21)CCc1c(-c2ccc(C(=O)O)cc2)cn(Cc2cccnc2)c1-3` [Compound I, 4-(7,7,10,10-Tetramethyl-1-pyridin-3-ylmethyl-4,5,7,8,9,10-hexahydro-1H-naphto[2,3-g]indol-3-yl)-benzoic acid] the “THP-1 IL-12” value (IL-12 [2]) was 364 pg/mL, the IL-12 (IL-12 [3]; antagonist 10 nM) was 173 pg/mL and the IL-12 (IL-12 [3]; antagonist 100 nM) was 205 pg/mL. The IL-12 (IL-12 [3]; antagonist 1000 nM) was 321 pg/mL, the IL-10 (IL-10; antagonist 10 nM) was 971 pg/mL and the IL-10 (IL-10; antagonist 100 nM) was 983 pg/mL. It also gave an IL-10 (IL-10; antagonist 1000 nM) of 1116 pg/mL, a TNF-α (TNF-α; antagonist 10 nM) of 2592 pg/mL and a TNF-α (TNF-α; antagonist 100 nM) of 2752 pg/mL. For the same compound, the TNF-α (TNF-α; antagonist 1000 nM) was 2884 pg/mL, the “PBMC IL-12” value (IL-12 [4]; retinoid antagonist (1 µg) added after 16 hours together with SAC) was 367 pg/mL and the “PBMC IL-12” value (IL-12 [4]; retinoid antagonist (1 µg) added at time 0 together with IFNγ) was 371 pg/mL.

With `C=C1/C(=C\C=C2/CCC[C@]3(C)[C@@H]([C@H](C)CCCC(C)(C)O)CC[C@@H]23)C[C@@H](O)C[C@@H]1O` [Calcitriol, 1,25-dihydroxyvitamin D3] the “Calcium release per half calvarium” value (neonatal mouse calvaria; Calcitriol 0.3 nM alone, 72 hours) was 4 ± 3 µg, the “Calcium release per half calvarium” value (neonatal mouse calvaria; Calcitriol 1 nM alone, 72 hours) was 9 ± 4 µg and the “Calcium release per half calvarium” value (neonatal mouse calvaria; Calcitriol 3 nM alone, 72 hours) was 13 ± 3 µg.
